Test results published in article PMC4303209, “A novel phosphatidylinositol 3-kinase (PI3K) inhibitor directs a potent FOXO-dependent, p53-independent cell cycle arrest phenotype characterized by the differential induction of a subset of FOXO-regulated genes” (Breast Cancer Research : BCR, 2014).

Tested on: MCF-7 breast cancer cells
Assay: Microarray gene expression analysis (Agilent whole human genome 4 x 44K; compound vs DMSO, LIMMA log2 fold change)
Type: cell-based
Conditions: Apoptosis genes

## Cn1ncc2c(N3CCOCC3)nc(-c3cccc(O)c3)nc21 [ETP-45658]
Gene 23421
  ITGB3BP log2FC: 0.773
Gene 23429
  RYBP log2FC: 0.520
Gene 23493
  HEY2 log2FC: -0.060
Gene 23513
  SCRIB log2FC: -0.165
Gene 23529
  CLCF1 log2FC: -0.993
Gene 23532
  PRAME log2FC: -0.401
Gene 23564
  DDAH2 log2FC: 0.126
Gene 23567
  ZNF346 log2FC: 0.167
Gene 23581
  CASP14 log2FC: -0.095
Gene 23636
  NUP62 log2FC: -0.576
Gene 23645
  PPP1R15A log2FC: 1.011
Gene 23746
  AIPL1 log2FC: -0.252
Gene 23770
  FKBP8 log2FC: -0.132
Gene 23786
  BCL2L13 log2FC: 0.179
Gene 23787
  MTCH1 log2FC: 0.077
Gene 25791
  NGEF log2FC: 0.588
Gene 25803
  SPDEF log2FC: -0.326
Gene 25816
  TNFAIP8 log2FC: 0.706
Gene 25824
  PRDX5 log2FC: -0.074
Gene 25855
  BRMS1 log2FC: -0.580
Gene 25942
  SIN3A log2FC: 0.788
Gene 25994
  HIGD1A log2FC: 0.198
Gene 26135
  SERBP1 log2FC: 0.313
Gene 26155
  NOC2L log2FC: -0.773
Gene 26230
  TIAM2 log2FC: 0.410
Gene 26574
  AATF log2FC: -0.362
Gene 26585
  GREM1 log2FC: -0.311
Gene 26586
  CKAP2 log2FC: 0.829
Gene 26999
  CYFIP2 log2FC: -0.154
Gene 27018
  NGFRAP1 log2FC: 0.134
Gene 27063
  ANKRD1 log2FC: 0.342
Gene 27069
  GHITM log2FC: 0.501
Gene 27113
  BBC3 log2FC: 2.148
Gene 27141
  CIDEB log2FC: -0.076
Gene 27165
  GLS2 log2FC: 0.175
Gene 27242
  TNFRSF21 log2FC: -1.178
Gene 27250
  PDCD4 log2FC: 1.281
Gene 27252
  KLHL20 log2FC: 0.174
Gene 27443
  CECR2 log2FC: -0.568
Gene 28988
  DBNL log2FC: -0.399
Gene 28996
  HIPK2 log2FC: -0.166
Gene 29115
  SAP30BP log2FC: -0.314
Gene 29124
  LGALS13 log2FC: -0.151
Gene 29775
  CARD10 log2FC: -0.324
Gene 29843
  SENP1 log2FC: 0.416
Gene 29844
  TFPT log2FC: -0.708
Gene 29944
  PNMA3 log2FC: 0.559
Gene 29979
  UBQLN1 log2FC: 0.311
Gene 30001
  ERO1L log2FC: 0.255
Gene 30011
  SH3KBP1 log2FC: 0.491
Gene 30818
  KCNIP3 log2FC: 0.159
Gene 50484
  RRM2B log2FC: 0.508
Gene 50486
  G0S2 log2FC: -0.063
Gene 50507
  NOX4 log2FC: -0.318
Gene 50515
  CHST11 log2FC: -0.798
Gene 50649
  ARHGEF4 log2FC: 0.114
Gene 50650
  ARHGEF3 log2FC: 0.584
Gene 51022
  GLRX2 log2FC: -0.287
Gene 51065
  RPS27L log2FC: 0.265
Gene 51074
  APIP log2FC: 0.142
Gene 51079
  NDUFA13 log2FC: -0.190
Gene 51083
  GAL log2FC: -0.531
Gene 51100
  SH3GLB1 log2FC: 0.592
Gene 51107
  APH1A log2FC: -0.202
Gene 51118
  UTP11L log2FC: -0.844
Gene 51124
  IER3IP1 log2FC: 0.463
Gene 51129
  ANGPTL4 log2FC: -0.967
Gene 51147
  ING4 log2FC: 1.465
Gene 51176
  LEF1 log2FC: -0.842
Gene 51283
  BFAR log2FC: 0.564
Gene 51316
  PLAC8 log2FC: -0.141
Gene 51330
  TNFRSF12A log2FC: -0.850
Gene 51378
  ANGPT4 log2FC: -0.106
Gene 51428
  DDX41 log2FC: -0.212
Gene 51454
  GULP1 log2FC: 1.616
Gene 51499
  TRIAP1 log2FC: -0.820
Gene 51530
  ZC3HC1 log2FC: 0.230
Gene 51588
  PIAS4 log2FC: -0.216
Gene 51604
  PIGT log2FC: 0.174
Gene 51616
  TAF9B log2FC: 0.427
Gene 51651
  PTRH2 log2FC: -0.336
Gene 51741
  WWOX log2FC: -0.809
Gene 51804
  SIX4 log2FC: 0.564
Gene 53832
  IL20RA log2FC: 0.097
Gene 54205
  CYCS log2FC: -0.446
Gene 54361
  WNT4 log2FC: -0.709
Gene 54431
  DNAJC10 log2FC: 0.727
Gene 54469
  ZFAND6 log2FC: 0.430
Gene 54507
  ADAMTSL4 log2FC: -0.301
Gene 54541
  DDIT4 log2FC: -0.893
Gene 54556
  ING3 log2FC: 0.777
Gene 54700
  RRN3 log2FC: -0.293
Gene 54806
  AHI1 log2FC: 0.585
Gene 54870
  QRICH1 log2FC: -0.061
Gene 54929
  TMEM161A log2FC: -0.567
Gene 55023
  PHIP log2FC: 1.243
Gene 55031
  USP47 log2FC: 0.762
Gene 55074
  OXR1 log2FC: 0.502
Gene 55075
  UACA log2FC: 0.817
Gene 55081
  IFT57 log2FC: 0.552
Gene 55113
  XKR8 log2FC: 0.287
Gene 55164
  SHQ1 log2FC: -0.250
Gene 55179
  FAIM log2FC: 0.209
Gene 55201
  MAP1S log2FC: -0.375
Gene 55210
  ATAD3A log2FC: -0.394
Gene 55240
  STEAP3 log2FC: -0.569
Gene 55288
  RHOT1 log2FC: 0.620
Gene 55312
  RFK log2FC: 0.519
Gene 55486
  PARL log2FC: -0.133
Gene 55504
  TNFRSF19 log2FC: -0.110
Gene 55749
  CCAR1 log2FC: 0.836
Gene 55795
  PCID2 log2FC: 0.322
Gene 55819
  RNF130 log2FC: 0.142
Gene 55840
  EAF2 log2FC: 0.438
Gene 55851
  PSENEN log2FC: -0.304
Gene 55973
  BCAP29 log2FC: 0.449
Gene 56159
  TEX11 log2FC: -0.066
Gene 56259
  CTNNBL1 log2FC: -0.141
Gene 56616
  DIABLO log2FC: -0.193
Gene 56624
  ASAH2 log2FC: -0.191
Gene 56658
  TRIM39 log2FC: -0.084
Gene 56751
  BARHL1 log2FC: -0.269
Gene 56776
  FMN2 log2FC: 0.105
Gene 56848
  SPHK2 log2FC: -0.628
Gene 56892
  C8orf4 log2FC: -0.080
Gene 56917
  MEIS3 log2FC: -0.061
Gene 56940
  DUSP22 log2FC: 0.419
Gene 57019
  CIAPIN1 log2FC: -0.388
Gene 57060
  PCBP4 log2FC: -0.519
Gene 57099
  AVEN log2FC: -0.627
Gene 57118
  CAMK1D log2FC: -0.141
Gene 57142
  RTN4 log2FC: 0.129
Gene 57144
  PAK7 log2FC: 0.396
Gene 57448
  BIRC6 log2FC: 0.155
Gene 57551
  TAOK1 log2FC: 0.386
Gene 57556
  SEMA6A log2FC: -0.108
Gene 57630
  SH3RF1 log2FC: -0.399
Gene 57646
  USP28 log2FC: 0.268
Gene 57678
  GPAM log2FC: 0.310
Gene 57680
  CHD8 log2FC: -0.199
Gene 57761
  TRIB3 log2FC: 0.343
Gene 58157
  NGB log2FC: -0.410
Gene 58517
  RBM25 log2FC: 0.406
Gene 60485
  SAV1 log2FC: 0.676
Gene 60675
  PROK2 log2FC: -0.050
Gene 63916
  ELMO2 log2FC: 0.581
Gene 63924
  CIDEC log2FC: 0.346
Gene 63979
  FIGNL1 log2FC: -0.206
Gene 64065
  PERP log2FC: 0.653
Gene 64112
  MOAP1 log2FC: 1.318
Gene 64121
  RRAGC log2FC: 1.860
Gene 64135
  IFIH1 log2FC: 0.885
Gene 64393
  ZMAT3 log2FC: -0.105
Gene 64422
  ATG3 log2FC: 0.283
Gene 64426
  SUDS3 log2FC: -0.126
Gene 64780
  MICAL1 log2FC: -0.454
Gene 64857
  PLEKHG2 log2FC: -0.832
